Like-named read-outs stand apart in the source and are kept apart here.

Test [1] has as its system BACE1 (Aβ40 from cells stably expressing Amyloid Precursor Protein). Briefly: In vitro BACE1 cell-based assay (Aβ40 in conditioned medium, HTRF). In outline: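 APP-stably expressing cells treated with compounds in 22-point dose response from 62.5 μM top concentration (0.625% final DMSO) for 24 h at 37° C in DMEM/10% FBS. Secreted Aβ40 in conditioned medium quantified by HTRF using ConfAb40 and biotinylated 6E10 with streptavidin-APC, 30-60 min at 23° C.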

Another test deals with human recombinant BACE2 (Homo sapiens (Human), UniProt Q9Y5Z0). Briefly: In vitro enzymatic BACE2 FRET assay. Particulars: read-out: BACE2 Enzyme IC50. It counts as biochemical. In a few lines:
(§1)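 Ni-NTA-purified recombinant human BACE1 or BACE2 cleaved a 50 nM internally quenched peptide FRET substrate for one hour. Reactions were stopped with tris buffer raising pH to neutrality. Fluorescence was read at ex 488/em 590 nm.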

For a further test, the target named is human recombinant BACE1 (Homo sapiens (Human), UniProt P56817). Briefly: In vitro enzymatic BACE1 FRET assay. It is filed as biochemical. The note with it: read-out: BACE1 Enzyme IC50. In a few lines:
as §1

The test system of test [2] is β-secretase (Aβ peptide levels). Briefly: In vivo inhibition of β-secretase (Aβ reduction in rat CSF and brain). From the text: In vivo Inhibition of β-Secretase
Several animal models, including mouse, rat, dog, and monkey, may be used to screen for inhibition of β-secretase activity in vivo following administration of a test compound. […] Animals to be used in this experiment can be wild type, transgenic, or gene knockout animals. For example, the Tg2576 mouse model, prepared and conducted as described in Hsiao et al., Science 274:99-102 (1996), and other non-transgenic or gene knockout animals are useful to analyze in vivo inhibition of Aβ peptide production in the presence of test compounds.
Generally, 2 to 18 month old Tg2576 mice, gene knockout mice or non-transgenic animals are administered test compounds formulated in vehicles, such as cyclodextran, phosphate buffers, hydroxypropyl methylcellulose or other suitable vehicles. One to twenty-four hours following the administration of compound, animals are sacrificed, and brains as well as cerebrospinal fluid (CSF) and plasma are removed for analysis of Aβ levels and test compound concentrations (Dovey et al., J. Neurochem., 76(1):173-181 (2001)) Beginning at time 0, animals are administered by oral gavage, or other means of delivery such as intravenous injection, an inhibitory test compound of up to 100 mg/kg in a standard, conventional formulation, such as 2% hydroxypropyl methylcellulose, 1% Tween80. A separate group of animals receive 2% hydroxypropyl methylcellulose, 1% Tween80 alone, containing no test compound, and serve as a vehicle-control group. At the end of the test period, animals are sacrificed and brain tissues, plasma or cerebrospinal fluid are collected. Brains are either homogenized in 10 volumes (w/v) of 0.2% diethylamine (DEA) in 50 mM NaCl (Best et al., J. Pharmacol. Exp. Ther. 313(2):902-908 (2005)), or in 10 volumes of 0.5% TritonX-100 in Tris-buffered saline (pH at about 7.6). Homogenates are centrifuged at 355,000 g, 4° C. for 30 minutes. CSF or brain supernatants are then analyzed for the presence of Aβ by specific sandwich ELISA assays based on ECL (Electrochemiluminescence) technology. For example, rat Aβ40 is measured using biotinylated-4G8 (Signet) as a capture antibody and Fab40 (an in-house antibody specific to the C-terminal of Aβ40) as a detection antibody. For example, 4 hours after administration of 30 mg/kg oral dose of the test compound in 2% hydroxypropyl methylcellulose, 1% Tween80 (pH2.2) to 200 g male Sprague Dawley rats, Aβ peptide levels are measured for reduction by X % and Y % in cerebrospinal fluid and brain, respectively, when compared to the levels measured in the vehicle-treated or control mice. Alternatively, the antibody sold with the V-PLEX abeta40 Peptide (4G8) Kit, commercially available from Meso Scale Diagnostics (MSD), Rockville, Md. 20850-3173 (Catalog NO. K150SJE-1) may be used in this assay.
The results presented in Table 3 were obtained using certain compounds described herein in the in vivo protocol described above.

Another test concerns the target Recombinant CatD (Homo sapiens (Human), UniProt P07339). Briefly: In vitro enzymatic Cathepsin D (CatD) FRET assay. Particulars: read-out: Cat D Enzyme IC50. It is filed as biochemical. In a few lines:
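Recombinant human CatD, expressed in CHO cells, was run in 0.05 M citrate pH 3.5 with 10% DMSO final and 5 mM CHAPS. Reactions were started with 20 nM quenched FRET peptide and incubated 1 h. Tris buffer was added to neutralize the pH before reading fluorescence at ex 500/em 580 nm.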

[3] abbreviates: Aβ40, 24 h incubation, read-out: BACE1 Cell IC50.
[4] abbreviates: 24 h, read-out: BACE1 Cell IC50 (μM).

Sequence of human recombinant BACE2 (Q9Y5Z0 63-518): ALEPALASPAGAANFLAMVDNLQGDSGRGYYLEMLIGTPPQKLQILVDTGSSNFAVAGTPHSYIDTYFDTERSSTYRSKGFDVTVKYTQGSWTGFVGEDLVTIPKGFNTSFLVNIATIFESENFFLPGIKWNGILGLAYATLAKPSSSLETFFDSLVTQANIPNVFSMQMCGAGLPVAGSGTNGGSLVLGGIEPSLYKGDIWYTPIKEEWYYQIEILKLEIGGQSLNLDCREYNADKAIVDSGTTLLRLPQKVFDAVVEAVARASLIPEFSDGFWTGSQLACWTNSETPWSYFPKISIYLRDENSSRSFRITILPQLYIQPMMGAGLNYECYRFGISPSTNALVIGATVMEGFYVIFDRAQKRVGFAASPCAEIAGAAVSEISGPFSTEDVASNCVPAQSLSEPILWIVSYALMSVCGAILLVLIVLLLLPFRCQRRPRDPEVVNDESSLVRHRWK
Sequence of Recombinant CatD (P07339 65-412): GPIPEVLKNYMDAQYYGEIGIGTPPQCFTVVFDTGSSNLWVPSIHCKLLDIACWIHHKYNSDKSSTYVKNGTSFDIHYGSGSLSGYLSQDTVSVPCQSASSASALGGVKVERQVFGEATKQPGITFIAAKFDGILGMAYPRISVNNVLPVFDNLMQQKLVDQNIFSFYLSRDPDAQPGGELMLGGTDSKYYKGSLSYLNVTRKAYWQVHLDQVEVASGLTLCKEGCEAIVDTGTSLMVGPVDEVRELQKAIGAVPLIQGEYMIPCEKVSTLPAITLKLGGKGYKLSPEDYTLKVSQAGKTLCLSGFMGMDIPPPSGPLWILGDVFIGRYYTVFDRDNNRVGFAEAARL
Sequence of human recombinant BACE1 (P56817 46-501): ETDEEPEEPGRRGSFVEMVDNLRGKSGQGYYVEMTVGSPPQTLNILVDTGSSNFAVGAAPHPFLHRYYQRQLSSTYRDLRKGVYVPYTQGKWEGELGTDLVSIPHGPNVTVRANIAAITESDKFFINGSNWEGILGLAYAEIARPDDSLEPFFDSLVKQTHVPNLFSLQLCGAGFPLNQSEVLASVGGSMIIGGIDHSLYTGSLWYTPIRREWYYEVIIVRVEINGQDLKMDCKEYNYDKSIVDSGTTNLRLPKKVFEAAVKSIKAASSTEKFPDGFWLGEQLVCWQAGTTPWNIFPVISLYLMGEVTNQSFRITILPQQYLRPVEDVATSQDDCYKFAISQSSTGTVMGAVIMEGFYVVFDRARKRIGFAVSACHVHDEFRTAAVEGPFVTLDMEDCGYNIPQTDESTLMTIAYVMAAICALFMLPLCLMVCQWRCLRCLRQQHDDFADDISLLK

As usually defined, the IC50 is the point on the concentration scale where inhibition reaches its midpoint. Regarding `C#CCOc1cnc(/C(F)=C/c2ccc(F)c([C@]34CN(C(C)=O)C[C@H]3CSC(N)=N4)c2)cn1` [Example 118, 1-((4aR,7aS)-2-amino-7a-(2-fluoro-5-((Z)-2-fluoro-2-(5-(prop-2-yn-1-yloxy)pyrazin-2-yl)vinyl)phenyl)-4a,5,7,7a-tetrahydropyrrolo[3,4-d][1,3]thiazin-6(4H)-yl)ethanone], the IC50 in test [1] (setting [3]) was 0.0198 µM; on human recombinant BACE2, 0.394 µM; on human recombinant BACE1 it was 0.00745 µM; at Recombinant CatD, 125 µM. Moreover, in test [2], the “% Aβ reduction in rat CSF at 10 mpk” value was found to be 43%. For the same compound, the “% Aβ reduction in rat brain at 10 mpk” value in test [2] was determined as 43%.
For `N#Cc1ccc(/C(F)=C/c2ccc(F)c([C@@]34CO[C@@H](CF)[C@@H]3CSC(N)=N4)c2)nc1` [Example 133, 6-((Z)-2-(3-((4aR,5R,7aR)-2-amino-5-(fluoromethyl)-4a,5,7,7a-tetrahydro-4H-furo[3,4-d][1,3]thiazin-7a-yl)-4-fluorophenyl)-1-fluorovinyl)nicotinonitrile], the IC50 in test [1] (setting [3]) came to 2 µM; at human recombinant BACE2, 28 µM; on human recombinant BACE1 it was 1.22 µM; at Recombinant CatD, 139 µM.
For `N#Cc1ccc(/C(F)=C/c2ccc(F)c([C@]34CO[C@H](C(F)(F)F)[C@H]3COC(N)=N4)c2)nc1` (single isomer, unassigned) [Example 142], the half-inhibitory concentration (IC50) is 0.0588 µM in test [1] (setting [3]), 3.54 µM on human recombinant BACE2, 0.0372 µM on human recombinant BACE1 and greater than 400 µM at Recombinant CatD.
In the case of `N#Cc1cnc(/C(F)=C/c2ccc(F)c([C@]34CO[C@H](C(F)(F)F)[C@H]3CSC(N)=N4)c2)cn1` [Example 128, 5-((Z)-2-(3-((4aS,5S,7aS)-2-amino-5-(trifluoromethyl)-4a,5,7,7a-tetrahydro-4H-furo[3,4-d][1,3]thiazin-7a-yl)-4-fluorophenyl)-1-fluorovinyl)pyrazine-2-carbonitrile], the IC50 in test [1] (setting [4]) was found to be 0.00364 µM; on human recombinant BACE2, 0.341 µM; on human recombinant BACE1, 0.0153 µM; on Recombinant CatD, 418 µM. In test [2], the “% Aβ reduction in rat CSF at 10 mpk” value came out at 79%. For the same compound, the “% Aβ reduction in rat brain at 10 mpk” value in test [2] is given as 77%.
For the compound `N#Cc1ccc(/C(F)=C/c2ccc(F)c([C@@]34CO[C@@H](C(F)F)[C@@H]3CSC(N)=N4)c2)nc1` [Example 145, 6-((Z)-2-(3-((4aR,5R,7aR)-2-Amino-5-(difluoromethyl)-4a,5-dihydro-4H-furo[3,4-d][1,3]thiazin-7a(7H)-yl)-4-fluorophenyl)-1-fluorovinyl)nicotinonitrile], the IC50 was 0.041 µM in test [1] (setting [3]), 1.4 µM on human recombinant BACE2, 0.0485 µM at human recombinant BACE1 and greater than 400 µM at Recombinant CatD.
Taken in the same sequence, the figures for `Cc1cc(C#N)cnc1/C(F)=C/c1ccc(F)c([C@]23CO[C@H](C(F)(F)F)[C@H]2CSC(N)=N3)c1` [Example 138, 6-((Z)-2-(3-((4aS,5S,7aS)-2-amino-5-(trifluoromethyl)-4a,5,7,7a-tetrahydro-4H-furo[3,4-d][1,3]thiazin-7a-yl)-4-fluorophenyl)-1-fluorovinyl)-5-methylnicotinonitrile] were 0.116 µM, 1.14 µM, 0.0272 µM and greater than 400 µM.
Taken in the same sequence, the figures for `N#Cc1ccc(/C(F)=C/c2ccc(F)c([C@]34CN(c5ncc(F)cn5)C[C@H]3CSC(N)=N4)c2)nc1` [Example 102, 6-((Z)-2-(3-((4aR,7aS)-2-amino-6-(5-fluoropyrimidin-2-yl)-4,4a,5,6,7,7a-hexahydropyrrolo[3,4-d][1,3]thiazin-7a-yl)-4-fluorophenyl)-1-fluorovinyl)nicotinonitrile] were 0.000682 µM, 0.00308 µM, 0.000241 µM and 118 µM.
Regarding `N#Cc1ccc(/C(F)=C/c2ccc(F)c([C@]34CN(c5ncccn5)C[C@H]3CSC(N)=N4)c2)nc1` [Example 135, 6-((Z)-2-(3-((4aR,7aS)-2-amino-6-(pyrimidin-2-yl)-4,4a,5,6,7,7a-hexahydropyrrolo[3,4-d][1,3]thiazin-7a-yl)-4-fluorophenyl)-1-fluorovinyl)nicotinonitrile], the IC50 in test [1] (setting [3]) is 0.0018 µM; on human recombinant BACE2, 0.0223 µM; at human recombinant BACE1, 0.0043 µM; on Recombinant CatD, 106 µM.
Regarding `N#Cc1ccc(/C(F)=C/c2ccc(F)c([C@]34CO[C@H](C(F)(F)F)[C@H]3CSC(N)=N4)c2)nc1` [Example 126, 6-((Z)-2-(3-((4aS,5S,7aS)-2-amino-5-(trifluoromethyl)-4a,5,7,7a-tetrahydro-4H-furo[3,4-d][1,3]thiazin-7a-yl)-4-fluorophenyl)-1-fluorovinyl)nicotinonitrile], the IC50 is 0.00574 µM in test [1] (setting [3]), 0.334 µM at human recombinant BACE2, 0.0201 µM at human recombinant BACE1 and 292 µM on Recombinant CatD. Also, in test [2], the “% Aβ reduction in rat CSF at 10 mpk” value is 83%. The “% Aβ reduction in rat brain at 10 mpk” value in test [2] was determined as 80%.
In the case of `NC1=N[C@@]2(c3cc(/C=C(\F)c4ccc(C(F)(F)F)cn4)ccc3F)CO[C@H](C(F)(F)F)[C@H]2CS1` [Example 139, (4aS,5S,7aS)-7a-(2-fluoro-5-((Z)-2-fluoro-2-(5-(trifluoromethyl)pyridin-2-yl)vinyl)phenyl)-5-(trifluoromethyl)-4a,5,7,7a-tetrahydro-4H-furo[3,4-d][1,3]thiazin-2-amine], the IC50 in test [1] (setting [3]) was 0.117 µM; at human recombinant BACE2 it was 1.5 µM; on human recombinant BACE1 it was 0.0158 µM; at Recombinant CatD, greater than 400 µM.
Consider `N#Cc1ccc(/C(F)=C/c2ccc(F)c([C@@]34COC[C@@H]3CSC(N)=N4)c2)nc1` [Example 106, 6-((Z)-2-(3-((4aR,7aR)-2-amino-4a,5,7,7a-tetrahydro-4H-furo[3,4-d][1,3]thiazin-7a-yl)-4-fluorophenyl)-1-fluorovinyl)nicotinonitrile], for which the IC50 in test [1] (setting [3]) came out at 0.985 µM; at human recombinant BACE2, 6.39 µM; at human recombinant BACE1, 0.502 µM; on Recombinant CatD, 815 µM.
For `C#CCOc1cnc(/C(F)=C/c2ccc(F)c([C@]34CN(C(=O)OC(C)C)C[C@H]3CSC(N)=N4)c2)cn1` [Example 124, (4aR,7aS)-isopropyl 2-amino-7a-(2-fluoro-5-((Z)-2-fluoro-2-(5-(prop-2-yn-1-yloxy)pyrazin-2-yl)vinyl)phenyl)-4a,5,7,7a-tetrahydropyrrolo[3,4-d][1,3]thiazine-6(4H)-carboxylate], the IC50 in test [1] (setting [4]) was 0.00269 µM; at human recombinant BACE2 it was 0.0922 µM; at human recombinant BACE1, 0.00262 µM; on Recombinant CatD, 23.8 µM.
For the compound `CC#CCOc1cnc(/C(F)=C/c2ccc(F)c([C@]34CN(c5ncc(F)cn5)C[C@H]3CSC(N)=N4)c2)cn1` [Example 117, (4aR,7aS)-7a-(5-((Z)-2-(5-(but-2-yn-1-yloxy)pyrazin-2-yl)-2-fluorovinyl)-2-fluorophenyl)-6-(5-fluoropyrimidin-2-yl)-4,4a,5,6,7,7a-hexahydropyrrolo[3,4-d][1,3]thiazin-2-amine], the IC50 in test [1] (setting [3]) was 0.00038 µM; on human recombinant BACE2 it was 0.00279 µM; at human recombinant BACE1, 0.000286 µM; on Recombinant CatD, 13.2 µM.

The values above are taken from patent US11548903B2, “Bicyclic thiazine and oxazine derivatives as beta-secretase inhibitors and methods of use” (AMGEN INC., priority 2016, dated 2023).
